Test results from US10294202B2, “Pyrrolidinones as herbicides” (FMC Corporation, priority 2013, dated 2019).

Experiments:
giant foxtail = experiment: Test A pre-/postemergence herbicide test; format: in vivo, Setaria faberii; details: for Foxtail, Giant plant response rating: visual rating on 0 to 100 scale (0 no effect, 100 complete control)
Method in brief: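 Scoring was visual, relative to untreated controls, on a 0–100 scale after about 10 greenhouse days. Preemergence treatment used a directed soil spray over seeded loam/sand; postemergence treatment targeted one- to two-leaf plants of 2–10 cm.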

rice = experiment: Test B flooded paddy test; format: in vivo, Oryza sativa; details: Flood, scale of 0 to 100 where 0 is no effect and 100 is complete control
Method in brief: (§1)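 Plants grown to 2-leaf stage; pots flooded 3 cm above soil and compound applied directly into paddy water, depth held throughout. Visual rating against untreated controls after 13 to 15 days in greenhouse, 0 (no effect) to 100 (complete control).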

sedge, umbrella = experiment: Test B flooded paddy test; format: in vivo, Cyperus difformis; details: Flood, scale of 0 to 100 where 0 is no effect and 100 is complete control
Method in brief: as §1

ducksalad = experiment: Test B flooded paddy test; format: in vivo, Heteranthera limosa; details: Flood, scale of 0 to 100 where 0 is no effect and 100 is complete control
Method in brief: as §1

barnyardgrass = experiment: Test B flooded paddy test; format: in vivo, Echinochloa crus-galli; details: Flood, scale of 0 to 100 where 0 is no effect and 100 is complete control
Method in brief: as §1

blackgrass = experiment: Test C pre-/postemergence herbicide test; format: in vivo, Alopecurus myosuroides; details: Preemergence; for Blackgrass plant response rating: 31 g ai/ha, scale 0 to 100, 0 is no effect and 100 is complete control; for Plant response rating (scale of 0 to 100), Blackgrass: 250 g ai/ha
Excerpt: (§2) Seeds of plant species selected from blackgrass (Alopecurus myosuroides), ryegrass, Italian (Italian ryegrass, Lolium multiflorum), wheat (winter wheat, Triticum aestivum), galium (catchweed bedstraw, Galium aparine), corn (Zea mays), crabgrass, large (large crabgrass, Digitaria sanguinalis), foxtail, giant (giant foxtail, Setaria faberii), johnsongrass (Sorghum halepense), lambsquarters (Chenopodium album), morningglory (Ipomoea coccinea), nutsedge, yellow (yellow nutsedge, Cyperus esculentus), pigweed (Amaranthus retroflexus), ragweed (common ragweed, Ambrosia elatior), soybean (Glycine max), barnyardgrass (Echinochloa crus-galli), oilseed rape (Brassica napus), waterhemp (common waterhemp, Amaranthus rudis), kochia (Kochia scoparia), oat, wild (wild oat, Avena fatua), surinam grass (Brachiaria decumbens), foxtail, green (green foxtail, Setaria viridis), goosegrass (Eleusine indica), bromegrass, downy (downy bromegrass, Bromus tectorum), nightshade (eastern black nightshade, Solanum ptycanthum), cocklebur (common cocklebur, Xanthium strumarium), cupgrass, woolly (woolly cupgrass, Eriochloa villosa), bermudagrass (Cynodon dactylon), sunflower, (common oilseed sunflower, Helianthus annuus), Russian thistle (Salsola kali) and velvetleaf (Abutilon theophrasti) were planted into a blend of loam soil and sand and treated preemergence with test chemicals formulated in a non-phytotoxic solvent mixture which included a surfactant. At the same time, plants selected from these crop and weed species and also barley (winter barley, Hordeum vulgare), […]), chickweed (common chickweed, Stellaria media), deadnettle (henbit deadnettle, Lamium amplexicaule), and canarygrass (littleseed canarygrass, Phalaris minor) were planted in pots containing Redi-Earth® planting medium (Scotts Company, 14111 Scottslawn Road, Marysville, Ohio 43041) comprising spaghnum peat moss, vermiculite, wetting agent and starter nutrients and treated with postemergence applications of test chemicals formulated in the same manner. Plants ranged in height from 2 to 18 cm (1- to 4-leaf stage) for postemergence treatments. Treated plants and controls were maintained in a greenhouse for 13 to 15 days, after which time all species were compared to controls and visually evaluated. Plant response ratings, summarized in Table C, are based on a scale of 0 to 100 where 0 is no effect and 100 is complete control. A dash (-) response means no test result.

nutsedge, yellow = experiment: Test C pre-/postemergence herbicide test; format: in vivo, Cyperus esculentus; details: Preemergence; for Plant response rating (scale of 0 to 100), Nutsedge, Yellow: 250 g ai/ha
Excerpt: as §2

pigweed = experiment: Test C pre-/postemergence herbicide test; format: in vivo, Amaranthus retroflexus; details: Preemergence; for Plant response rating (scale of 0 to 100), Pigweed: 250 g ai/ha
Excerpt: as §2

oilseed rape = experiment: Test C pre-/postemergence herbicide test; format: in vivo, Brassica napus; details: Preemergence; for Plant response rating (scale of 0 to 100), Oilseed Rape: 250 g ai/ha
Excerpt: as §2

waterhemp = experiment: Test C pre-/postemergence herbicide test; format: in vivo, Amaranthus rudis; details: Preemergence; for Plant response rating (scale of 0 to 100), Waterhemp: 250 g ai/ha
Excerpt: as §2

velvetleaf = experiment: Test C pre-/postemergence herbicide test; format: in vivo, Abutilon theophrasti; details: Preemergence; for Plant response rating (scale of 0 to 100), Velvetleaf: 250 g ai/ha
Excerpt: as §2

ragweed = experiment: Test C pre-/postemergence herbicide test; format: in vivo, Ambrosia elatior; details: Preemergence; for Plant response rating (scale of 0 to 100), Ragweed: 250 g ai/ha
Excerpt: as §2

[1] = Postemergence, 125 g ai/ha, 0 to 100 scale, 0 no effect, 100 complete control
[2] = Postemergence, 500 g ai/ha, 0 to 100 scale (0 no effect, 100 complete control)
[3] = preemergence, 500 g ai/ha, 0 to 100 scale
[4] = 125 g ai/ha, scale 0 to 100 (0 no effect, 100 complete control)
[5] = 31 g ai/ha, scale 0 to 100, 0 is no effect and 100 is complete control
[6] = 125 g ai/ha, visual rating, 0 to 100 scale, 0 no effect, 100 complete control, approximately 10 days, preemergence
[7] = Postemergence, 125 g ai/ha, 0 to 100 scale, 0 is no effect, 100 is complete control
[8] = preemergence, 500 g ai/ha, 0 to 100 scale, 0 is no effect and 100 is complete control
[9] = 62 g ai/ha, scale 0 to 100 (0 no effect, 100 complete control)

Row | Compound | Plant response rating, Foxtail, Giant (giant foxtail; [1]) | Plant response rating, Foxtail, Giant (giant foxtail; [2]) | Foxtail, Giant plant response rating (giant foxtail; Preemergence, 125 g ai/ha) | Plant response rating, Foxtail, Giant (giant foxtail; [3]) | Blackgrass plant response rating (blackgrass) | Plant response rating, Blackgrass (blackgrass; 62 g ai/ha, scale 0 to 100) | Plant response rating, Blackgrass (blackgrass; [4]) | Plant response rating (scale of 0 to 100), Blackgrass (blackgrass) | Nutsedge, Yellow plant response rating (nutsedge, yellow; [5]) | Plant response rating, Nutsedge, Yellow (nutsedge, yellow; [4]) | Plant response rating (scale of 0 to 100), Nutsedge, Yellow (nutsedge, yellow) | Pigweed plant response rating (pigweed; [5]) | Plant response rating, Pigweed (pigweed; [4]) | Plant response rating (scale of 0 to 100), Pigweed (pigweed) | Oilseed Rape plant response rating (oilseed rape; [5]) | Plant response rating, Oilseed Rape (oilseed rape; [4]) | Waterhemp plant response rating (waterhemp; [5]) | Plant response rating, Waterhemp (waterhemp; [4]) | Velvetleaf plant response rating (velvetleaf; [5]) | Plant response rating, Velvetleaf (velvetleaf; [4]) | other results
1 | O=C1NCC(c2cccc(C(F)(F)F)c2)C1C(=O)Nc1ccccc1F (racemic) [Compound 3] | 60 | 80 | 90 | 90 |  |  |  |  |  |  |  |  |  |  |  |  |  |  |  |  | 
2 | O=C1NCC(c2ccc(F)c(F)c2)C1C(=O)Nc1cccc(F)c1 (racemic) [Compound 12] | 60 | 80 | 70 | 90 |  |  |  |  |  |  |  |  |  |  |  |  |  |  |  |  | 
3 | O=C1NCC(c2ccc(F)c(C(F)(F)F)c2)C1C(=O)Nc1ccccc1C(F)(F)F (racemic) [Compound 78] | 80 | 80 | 90 | 90 | 30 | 75 | 75 | 85 | 0 | 0 | 0 | 0 | 40 | 40 | 0 | 10 | 50 | 85 | 15 | 20 | Plant response rating, Rice (rice; 250 g ai/ha): 0; Plant response rating, Sedge, Umbrella (sedge, umbrella; 250 g ai/ha): 0; Plant response rating, Ducksalad (ducksalad; 250 g ai/ha): 85; Plant response rating, Barnyardgrass (barnyardgrass; 250 g ai/ha): 0; Plant response rating, Nutsedge, Yellow (nutsedge, yellow; 62 g ai/ha, scale 0 to 100): 0; Plant response rating, Pigweed (pigweed; 62 g ai/ha, scale 0 to 100): 40; Plant response rating, Oilseed Rape (oilseed rape; 62 g ai/ha, scale 0 to 100): 10; Plant response rating (scale of 0 to 100), Oilseed Rape (oilseed rape): 75; Plant response rating, Waterhemp (waterhemp; 62 g ai/ha, scale 0 to 100): 75; Plant response rating (scale of 0 to 100), Waterhemp (waterhemp): 85; Plant response rating, Velvetleaf (velvetleaf; 62 g ai/ha, scale 0 to 100): 15; Plant response rating (scale of 0 to 100), Velvetleaf (velvetleaf): 20
4 | O=C1NCC(c2cccc(C(F)(F)F)c2)C1C(=O)Nc1ccccc1Cl (racemic) [Compound 189] |  |  |  |  | 10 | 50 | 55 |  | 0 | 0 |  | 0 | 0 |  | 0 | 20 | 0 | 0 | 0 | 0 | Plant response rating, Foxtail, Giant (giant foxtail; [6]): 90; Plant response rating, Foxtail, Giant (giant foxtail; [7]): 70; Foxtail, Giant plant response rating (0 to 100 scale, 0 is no effect, 100 is complete control) (giant foxtail; Postemergence, 500 g ai/ha): 90; Plant response rating, Foxtail, Giant (giant foxtail; [8]): 90; Plant response rating, Blackgrass (blackgrass; 16 g ai/ha, scale 0 to 100): 0; Nutsedge, Yellow plant response rating (nutsedge, yellow; [9]): 0; Plant response rating, Nutsedge, Yellow (nutsedge, yellow; 16 g ai/ha, scale 0 to 100): 0; Pigweed plant response rating (pigweed; [9]): 0; Plant response rating, Pigweed (pigweed; 16 g ai/ha, scale 0 to 100): 0; Ragweed plant response rating (ragweed; [5]): 0; Ragweed plant response rating (ragweed; [9]): 0; Plant response rating, Ragweed (ragweed; [4]): 0; Plant response rating, Ragweed (ragweed; 16 g ai/ha, scale 0 to 100): 0; Oilseed Rape plant response rating (oilseed rape; [9]): 0; Plant response rating, Oilseed Rape (oilseed rape; 16 g ai/ha, scale 0 to 100): 0; Waterhemp plant response rating (waterhemp; [9]): 5; Plant response rating, Waterhemp (waterhemp; 16 g ai/ha, scale 0 to 100): 0; Velvetleaf plant response rating (velvetleaf; [9]): 0; Plant response rating, Velvetleaf (velvetleaf; 16 g ai/ha, scale 0 to 100): 0
5 | O=C1NCC(c2cccc(C(F)F)c2)C1C(=O)Nc1cccc(F)c1F (racemic) [Compound 211] |  |  |  |  | 0 | 20 | 85 | 90 | 0 | 0 | 10 |  | 0 | 70 | 0 | 90 | 85 | 100 | 0 | 30 | Plant response rating, Foxtail, Giant (giant foxtail; [6]): 80; Plant response rating, Foxtail, Giant (giant foxtail; [7]): 70; Foxtail, Giant plant response rating (0 to 100 scale, 0 is no effect, 100 is complete control) (giant foxtail; Postemergence, 500 g ai/ha): 90; Plant response rating, Foxtail, Giant (giant foxtail; [8]): 90; Nutsedge, Yellow plant response rating (nutsedge, yellow; [9]): 0; Pigweed plant response rating (pigweed; [9]): 0; Ragweed plant response rating (ragweed; [5]): 0; Ragweed plant response rating (ragweed; [9]): 10; Plant response rating, Ragweed (ragweed; [4]): 85; Plant response rating (scale of 0 to 100), Ragweed (ragweed): 100; Oilseed Rape plant response rating (oilseed rape; [9]): 35; Plant response rating (scale of 0 to 100), Oilseed Rape (oilseed rape): 90; Waterhemp plant response rating (waterhemp; [9]): 75; Plant response rating (scale of 0 to 100), Waterhemp (waterhemp): 90; Velvetleaf plant response rating (velvetleaf; [9]): 10; Plant response rating (scale of 0 to 100), Velvetleaf (velvetleaf): 35
6 | O=C1NCC(c2ccc(C(F)(F)F)c(F)c2)C1C(=O)Nc1ccccc1F (racemic) [Compound 246] |  | 80 |  |  | 0 | 0 | 5 | 70 | 85 | 100 | 0 | 30 | 75 | 100 | 0 | 0 | 100 | 90 | 0 | 0 | Plant response rating, Foxtail, Giant (giant foxtail; [7]): 40; Plant response rating, Foxtail, Giant (giant foxtail; Preemergence, 125 g ai/ha, 0 to 100 scale where 0 is no effect and 100 is complete control): 80; Plant response rating, Foxtail, Giant (giant foxtail; [8]): 90; Plant response rating, Rice (rice; 1000 g ai/ha): 20; Plant response rating, Sedge, Umbrella (sedge, umbrella; 1000 g ai/ha): 20; Plant response rating, Ducksalad (ducksalad; 1000 g ai/ha): 95; Plant response rating, Barnyardgrass (barnyardgrass; 1000 g ai/ha): 60; Nutsedge, Yellow plant response rating (nutsedge, yellow; [9]): 100; Pigweed plant response rating (pigweed; [9]): 75; Ragweed plant response rating (ragweed; [5]): 0; Ragweed plant response rating (ragweed; [9]): 0; Plant response rating, Ragweed (ragweed; [4]): 0; Plant response rating (scale of 0 to 100), Ragweed (ragweed): 40; Oilseed Rape plant response rating (oilseed rape; [9]): 30; Plant response rating (scale of 0 to 100), Oilseed Rape (oilseed rape): 30; Waterhemp plant response rating (waterhemp; [9]): 98; Plant response rating (scale of 0 to 100), Waterhemp (waterhemp): 90; Velvetleaf plant response rating (velvetleaf; [9]): 0; Plant response rating (scale of 0 to 100), Velvetleaf (velvetleaf): 0
